Data: patent publication US20030091601A1, “Use of topical arginine to enhance wound healing” (ABAT Inc., priority 2001, published 2003)

Tested on: wound site
Assay: Hydroxyproline (OHP) content of subcutaneous PVA sponges fed by mini-osmotic pump at a dorsal skin incision, index of wound reparative collagen accumulation
Type: in vivo, rats
Details: for OHP (collagen synthesis): day 14 post-wounding, mean±SEM
Description: (§1) Twenty-eight (28) male adult rats were obtained from a commercial breeder. Rats were housed individually in stainless steel cages at a constant temperature (25°±1° C.) and relative humidity (40-50%). The cages were kept in a room with a twelve-hour light-twelve-hour dark cycle. All animals were allowed at least one week of acclimatization to the laboratory conditions prior to use in the experiments. During this time, they were fed a standard laboratory chow and drank tap water ad libitum.
After the period of acclimatization, the rats were randomly placed into four groups, seven rats per group. Under pentobarbital anesthesia, their backs were shaved and scrubbed with an organic iodine solution and a dorsal skin incision was made. Subcutaneously at the skin incision, a mini-osmotic pump (model 2002, 0.5 μl/hr, Alzet Co.) attached to a polyvinyl alcohol sponge was inserted. Pumps were filled either with PBS or various solutions of arginine in PBS as indicated on Table 1. The rats tolerated the procedure well and recovered uneventfully.
The 1M solution delivers 2 mg/animal/day into the sponge. On the fourteenth day post-wounding, rats were sacrificed with an overdose of pentobarbital. The pelt containing the healing scar was excised. The PVA sponges were removed, carefully cleared of surrounding tissue and frozen at −20° C. for subsequent determination of hydroxyproline content as an index of wound reparative collagen accumulation using the method of Woessner. See J. Woessner, Determination of Hydroxproline in Tissue and Protein Samples Containing Small Proportions of this Amino Acid, Biochem. Biophys., Vol.93, p. 440 (1961).
as §1, with “Twenty (20)” for “Twenty-eight (28)”, “As in Experimental Example 1, rats” for “Rats”, “twelve hour light-twelve hour” for “twelve-hour light-twelve-hour”
After the period of acclimatization, the rats were randomly placed into two groups of ten rats. Under pentobarbital anesthesia, the rats' backs were shaved and scrubbed with an organic iodine solution and a dorsal skin incision was made. As in Experimental Example 1, a mini-osmotic pump (model 2002, 0.5 μl/hr, Alzet Co.) attached to a polyvinyl alcohol sponge was inserted subcutaneously at the incision site. Pumps were filled either with PBS or a solution of 1M arginine in PBS as indicated on Table 3. The rats tolerated the procedure well and recovered uneventfully.
as §1, with “Twenty-one (21)” for “Twenty-eight (28)”, “As in Example Experiments 1 and 2, rats” for “Rats”, “twelve hour light-twelve hour” for “twelve-hour light-twelve-hour”
After the period of acclimatization, the rats were randomly placed into two groups, eight (8) rats were placed into Group 1 and treated with PBS only and thirteen (13) rats were placed into Group 2 and treated with 1M omithine in PBS. Under pentobarbital anesthesia, the rats' backs were shave and scrubbed with an organic iodine solution and a dorsal skin incision was made. Subcutaneously at the skin incision, a mini-osmotic pump (model 2002, 0.5 μl/hr, Alzet Co.) attached to a polyvinyl alcohol sponge was inserted. The mini-osmotic pumps were filled either with PBS or a solution of 1M omithine in PBS as indicated on Table 5 below. The rats tolerated the procedure well and recovered uneventfully. […]

SMILES	increase in collagen biosynthesis accumulation compared to the PBS (control) group (Experimental Example 1, arginine 0.01M) [%]	OHP (collagen synthesis) (Experimental Example 1, arginine 0.01 M in PBS by mini-osmotic pump, PBS control 569 ± 27) [μg/100 mg sponge]	increase in collagen biosynthesis accumulation compared to the PBS (control) group (Experimental Example 1, arginine 0.1M) [%]	OHP (collagen synthesis) (Experimental Example 1, arginine 0.1 M in PBS by mini-osmotic pump, PBS control 569 ± 27) [μg/100 mg sponge]	increase in collagen biosynthesis accumulation compared to the PBS (control) group (Experimental Example 1, arginine 1M)	OHP (collagen synthesis) (Experimental Example 1, arginine 1 M in PBS by mini-osmotic pump (2 mg/animal/day), PBS control 569 ± 27) [μg/100 mg sponge]	increase in collagen biosynthesis accumulation compared to the PBS (control) group (Experimental Example 2, arginine 1M)	OHP (collagen synthesis) (Experimental Example 2, arginine 1 M in PBS by mini-osmotic pump (2 mg/animal/day), PBS control 574 ± 43) [μg/100 mg sponge]	increase in collagen biosynthesis accumulation compared to the PBS (control) group (Experimental Example 3, ornithine 1M)	OHP (collagen synthesis) (Experimental Example 3, ornithine 1 M in PBS by mini-osmotic pump, PBS control 588 ± 45) [μg/100 mg sponge]
N=C(N)NCCC[C@H](N)C(=O)O [Arginine, arginine]	≥ 10	633 ± 54	≥ 10	698 ± 74	over 60%	928 ± 55	over 30%	797 ± 48		
NCCC[C@H](N)C(=O)O [Ornithine, ornithine]									over 45%	854 ± 71
